{"source": "paper PMC6492180", "about": "“Cytome micronucleus assays with a metabolically competent human derived liver cell line (Huh6): A promising approach for routine testing of chemicals?” (Environmental and Molecular Mutagenesis, 2018)", "key": {"HepG2": {"test_system": "HepG2", "settings": "HepG2; ref Knasmuller et al., 1999; cited from earlier work"}, "Huh6 cells": {"test_system": "Huh6 cells", "protocol": "All experiments were performed in duplicate.\n3.8–4.0 × 10^5 cells per well were seeded into 6‐well plates with 3 mL of RPMI (4% FBS) for 12 hr, then dilutions of stock solutions of the diagnostic mutagens were added for different time periods (4, 24, and 48 hr). In each experimental series solvent controls were included. Subsequently, the cells were washed twice with 3.0 mL medium. […] Finally, the cells were washed and trypsinised. Afterwards the cells were washed twice with 8.0 mL RPMI and collected on slides by cytocentrifugation (600 rpm, 5 min). The slides were air dried, fixed, and stained with DiffQuick according to the instructions of the manufacturer. For each experimental point, two cultures were tested per dose. From each culture ≥1,000 BN cells were evaluated under 400‐fold magnification (Nikon Photophot‐FXA, Tokyo, Japan). At least 2,000 binucleated cells were analyzed per dose for the determination of the different nuclear anomalies (MN, NBuds, and NBs).\nThe experiments were performed as described in the previous chapter. The cells were exposed only to one dose of the different mutagens and were cultivated after the seeding in 6‐well plates which contained 4% or 10% FBS in RPMI, respectively.\nData were evaluated by generalized linear model with Poisson counts. Chi‐square tests for overdispersion were applied. […] P values ≤0.05 were considered statistically significant.\n^150-60 000 cells were seeded in 6 well plates with 3 ml RPMI (4% FBS), subsequently different solutions of the test compound (dissolved in medium) were added. After treatment for different time periods, the cells was washed and processed as described in the Material and Method section. […] From each culture 1000 binoculated cells were evaluated. BN-MN – number of micronucleated cells; MN - total number of micronuclei; CBPI – cytokinesis-block proliferation index\n^1The experiments were conducted essentially as described in the footnote of Table S1A-I. *p≤0.05"}, "HepaRG": {"test_system": "HepaRG", "settings": "HepaRG; ref Le Hegarat et al., 2010; cited from earlier work"}, "[1]": {"settings": "ref IARC (2018); cited from earlier work"}, "Human lymphocytes": {"test_system": "Human lymphocytes", "settings": "Human lymphocytes, + S9, cited from earlier work"}, "[2]": {"settings": "10% FBS, 24 hr treatment, 50 µM"}, "[3]": {"settings": "10% FBS, 24 hr treatment, 100 µM"}}, "note": "Like-named read-outs stand apart in the source and are kept apart here. Marks after values point to notes of the source that are not given here.", "data": [{"smiles": "Cn1c(N)nc2c3cccnc3ccc21", "note": "[IQ, 2‐Amino‐3‐methyl‐3H‐imidazo[4,5‐f]quinoline]", "values": [{"measurement": "Lowest effective concentration (LOEC) in micronucleus experiments", "setting": "HepG2", "value": "300.0 (Knasmuller et al., 1999) μM"}, {"measurement": "MN effects after 24 hr (or longer) compared with 4 hr treatment (in words)", "setting": "Huh6 cells; 4% FBS", "value": "more pronounced effects"}, {"measurement": "BN-MN (number of micronucleated cells)", "setting": "Huh6 cells; 4% FBS, 4hrs, 25 µM", "value": "16.0 ± 2.8 ‰"}, {"measurement": "Bridges", "setting": "Huh6 cells; 4% FBS, 4hrs, 25 µM", "value": "0.5 ± 0.7 ‰"}, {"measurement": "Buds", "setting": "Huh6 cells; 4% FBS, 4hrs, 25 µM", "value": "17.5 ± 2.1 ‰"}, {"measurement": "CBPI", "setting": "Huh6 cells; 4% FBS, 4hrs, 25 µM", "value": "1.9 ± 0.1"}, {"measurement": "MN (total number of micronuclei)", "setting": "Huh6 cells; 4% FBS, 4hrs, 25 µM", "value": "16.0 ± 2.8 ‰"}, {"measurement": "BN-MN (number of micronucleated cells)", "setting": "Huh6 cells; 4% FBS, 4hrs, 50 µM", "value": "18.0 ± 4.2 ‰"}, {"measurement": "Bridges", "setting": "Huh6 cells; 4% FBS, 4hrs, 50 µM", "value": "0.5 ± 0.7 ‰"}, {"measurement": "Buds", "setting": "Huh6 cells; 4% FBS, 4hrs, 50 µM", "value": "16.5 ± 0.7 ‰"}, {"measurement": "CBPI", "setting": "Huh6 cells; 4% FBS, 4hrs, 50 µM", "value": "1.8 ± 0.1"}, {"measurement": "MN (total number of micronuclei)", "setting": "Huh6 cells; 4% FBS, 4hrs, 50 µM", "value": "19.0 ± 4.2 ‰"}, {"measurement": "BN-MN (number of micronucleated cells)", "setting": "Huh6 cells; 4% FBS, 4hrs, 100 µM", "value": "23.5 ± 5.0* ‰"}, {"measurement": "Bridges", "setting": "Huh6 cells; 4% FBS, 4hrs, 100 µM", "value": "1.5 ± 0.7 ‰"}, {"measurement": "Buds", "setting": "Huh6 cells; 4% FBS, 4hrs, 100 µM", "value": "21.5 ± 2.1* ‰"}, {"measurement": "CBPI", "setting": "Huh6 cells; 4% FBS, 4hrs, 100 µM", "value": "1.9 ± 0.0"}, {"measurement": "MN (total number of micronuclei)", "setting": "Huh6 cells; 4% FBS, 4hrs, 100 µM", "value": "24.5 ± 5.0* ‰"}, {"measurement": "BN-MN (number of micronucleated cells)", "setting": "Huh6 cells; 4% FBS, 24hrs, 25 µM", "value": "18.5 ± 0.7 ‰"}, {"measurement": "Bridges", "setting": "Huh6 cells; 4% FBS, 24hrs, 25 µM", "value": "0.0 ± 0.0 ‰"}, {"measurement": "Buds", "setting": "Huh6 cells; 4% FBS, 24hrs, 25 µM", "value": "10.5 ± 2.1 ‰"}, {"measurement": "CBPI", "setting": "Huh6 cells; 4% FBS, 24hrs, 25 µM", "value": "1.9 ± 0.0"}, {"measurement": "MN (total number of micronuclei)", "setting": "Huh6 cells; 4% FBS, 24hrs, 25 µM", "value": "19.5 ± 0.7 ‰"}, {"measurement": "BN-MN (number of micronucleated cells)", "setting": "Huh6 cells; 4% FBS, 24hrs, 50 µM", "value": "26.0 ± 1.4* ‰"}, {"measurement": "Bridges", "setting": "Huh6 cells; 4% FBS, 24hrs, 50 µM", "value": "2.0 ± 0.0 ‰"}, {"measurement": "Buds", "setting": "Huh6 cells; 4% FBS, 24hrs, 50 µM", "value": "18.5 ± 2.1* ‰"}, {"measurement": "CBPI", "setting": "Huh6 cells; 4% FBS, 24hrs, 50 µM", "value": "1.7 ± 0.0"}, {"measurement": "MN (total number of micronuclei)", "setting": "Huh6 cells; 4% FBS, 24hrs, 50 µM", "value": "26.5 ± 0.7 ‰"}, {"measurement": "BN-MN (number of micronucleated cells)", "setting": "Huh6 cells; 4% FBS, 24hrs, 100 µM", "value": "39.0 ± 5.7* ‰"}, {"measurement": "Bridges", "setting": "Huh6 cells; 4% FBS, 24hrs, 100 µM", "value": "5.5 ± 0.7 ‰"}, {"measurement": "Buds", "setting": "Huh6 cells; 4% FBS, 24hrs, 100 µM", "value": "32.5 ± 5.0* ‰"}, {"measurement": "CBPI", "setting": "Huh6 cells; 4% FBS, 24hrs, 100 µM", "value": "2.0 ± 0.1"}, {"measurement": "MN (total number of micronuclei)", "setting": "Huh6 cells; 4% FBS, 24hrs, 100 µM", "value": "44.0 ± 1.4* ‰"}, {"measurement": "BN-MN (number of micronucleated cells)", "setting": "Huh6 cells; 4% FBS, 48hrs, 25 µM", "value": "20.5 ± 2.1 ‰"}, {"measurement": "Bridges", "setting": "Huh6 cells; 4% FBS, 48hrs, 25 µM", "value": "0.0 ± 0.0 ‰"}, {"measurement": "Buds", "setting": "Huh6 cells; 4% FBS, 48hrs, 25 µM", "value": "22.0 ± 4.2 ‰"}, {"measurement": "CBPI", "setting": "Huh6 cells; 4% FBS, 48hrs, 25 µM", "value": "1.9 ± 0.1"}, {"measurement": "MN (total number of micronuclei)", "setting": "Huh6 cells; 4% FBS, 48hrs, 25 µM", "value": "21.5 ± 2.1 ‰"}, {"measurement": "BN-MN (number of micronucleated cells)", "setting": "Huh6 cells; 4% FBS, 48hrs, 50 µM", "value": "32.0 ± 5.7* ‰"}, {"measurement": "Bridges", "setting": "Huh6 cells; 4% FBS, 48hrs, 50 µM", "value": "1.0 ± 0.0 ‰"}, {"measurement": "Buds", "setting": "Huh6 cells; 4% FBS, 48hrs, 50 µM", "value": "29.5 ± 2.1* ‰"}, {"measurement": "CBPI", "setting": "Huh6 cells; 4% FBS, 48hrs, 50 µM", "value": "1.8 ± 0.1"}, {"measurement": "MN (total number of micronuclei)", "setting": "Huh6 cells; 4% FBS, 48hrs, 50 µM", "value": "32.5 ± 6.4* ‰"}, {"measurement": "BN-MN (number of micronucleated cells)", "setting": "Huh6 cells; 4% FBS, 48hrs, 100 µM", "value": "40.0 ± 2.8* ‰"}, {"measurement": "Bridges", "setting": "Huh6 cells; 4% FBS, 48hrs, 100 µM", "value": "3.0 ± 1.4 ‰"}, {"measurement": "Buds", "setting": "Huh6 cells; 4% FBS, 48hrs, 100 µM", "value": "35.5 ± 3.5* ‰"}, {"measurement": "CBPI", "setting": "Huh6 cells; 4% FBS, 48hrs, 100 µM", "value": "1.7 ± 0.1"}, {"measurement": "MN (total number of micronuclei)", "setting": "Huh6 cells; 4% FBS, 48hrs, 100 µM", "value": "47.5 ± 3.5* ‰"}, {"measurement": "BN-MN (number of micronucleated cells)", "setting": "Huh6 cells; [2]", "value": "47.5 ± 3.5*"}, {"measurement": "Bridges", "setting": "Huh6 cells; [2]", "value": "0 ± 0.0"}, {"measurement": "Buds", "setting": "Huh6 cells; [2]", "value": "42 ± 2.8"}, {"measurement": "CBPI", "setting": "Huh6 cells; [2]", "value": "1.9 ± 0.0"}, {"measurement": "MN (total number of micronuclei)", "setting": "Huh6 cells; [2]", "value": "51.0 ± 1.4*"}, {"measurement": "BN-MN (number of micronucleated cells)", "setting": "Huh6 cells; [3]", "value": "63.5 ± 6.4*"}, {"measurement": "Bridges", "setting": "Huh6 cells; [3]", "value": "0.5 ± 0.7"}, {"measurement": "Buds", "setting": "Huh6 cells; [3]", "value": "49 ± 1.4"}, {"measurement": "CBPI", "setting": "Huh6 cells; [3]", "value": "1.8 ± 0.1"}, {"measurement": "MN (total number of micronuclei)", "setting": "Huh6 cells; [3]", "value": "68.5 ± 5.0*"}, {"measurement": "MN frequencies with 10% serum compared with 4% serum (in words)", "setting": "Huh6 cells; 24 hr treatment", "value": "stronger effects"}, {"measurement": "Lowest effective concentration (LOEC) in micronucleus experiments", "setting": "Huh6 cells; Huh6", "value": 50.0, "unit": "µM"}, {"measurement": "Lowest effective concentration (LOEC) in micronucleus experiments", "setting": "HepaRG", "value": "Negative"}, {"measurement": "NOEC (highest no observable effect concentration tested)", "setting": "HepaRG", "value": 500, "unit": "µM"}, {"measurement": "IARC classification", "setting": "[1]", "value": "Formation of guanine adducts, formation of DNA‐reactive metabolites which cause DNA‐adducts; activation: CYP1A2 and NAT; detoxification: GSTs and SULTs; IARC: Group 2A"}, {"measurement": "Lowest effective concentration (LOEC) in micronucleus experiments", "setting": "Human lymphocytes; ref Fowler et al., 2014", "value": 2200.0, "unit": "µM"}, {"measurement": "Lowest effective concentration (LOEC) in micronucleus experiments", "setting": "Human lymphocytes; ref Katic et al., 2010", "value": 250.0, "unit": "µM"}]}]}
